The values that follow come from ChEMBL document CHEMBL1201862, “PubChem BioAssay data set” (2004).

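A five-concentration, 48-hour dose response in 96-well plates underlies each endpoint, interpolated linearly between surrounding concentrations. The concentration for 50% growth inhibition is given as GI50.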 The source made the active and inactive calls. Rule as the data show it: active = GI50 up to about 1.1 µM and inactive = higher.

Holding throughout (test): DTP human tumour cell line panel, 48 h
Test [1] concerns OVCAR-3.
The test system of test [2] is UACC-62.
For test [3], the system named is HOP-92.
The test system of test [4] is UO-31.
For test [5], the system named is SR.
Test [6] has as its system SK-MEL-5.
Test [7] deals with SF-268.
Test [8] concerns NCI-H226.
The test system of test [9] is NCI-H460.
Test [10] has as its system KM12.
Test [11] concerns Malme-3M.
Test [12] concerns 786-0.
The subject of test [13] is MOLT-4.
In test [14] the test system is HCT-15.
Test [15] deals with RXF 393.
Test [16] deals with EKVX.
Test [17] deals with LOX IMVI.

In the case of `NC1=NC(Cn2nc(-c3ccccc3)c3ccccc3c2=O)=NNC(=O)N1`, the GI50 in [1], in [2], in [3], in test [4], in [5] and in [6] was > 100 µM (inactive) in each case. The GI50 in test [7], in test [8], in test [9], in [10], in test [11] and in test [12] was > 100 µM (inactive) each time. Moreover, the values for the GI50 in test [13] and in test [14] were > 100 µM (inactive) and over 100 µM, respectively.
With `CC1(C)CC(=O)C(C(=O)C(=O)NC2=C(Cl)C(=O)c3ccccc3C2=O)C(=O)C1`, the GI50 in test [15] is 70.8 µM (inactive); in test [1], 58.6 µM (inactive); in [2] it was 45.5 µM (inactive); in test [4] it was 57.4 µM (inactive); in [5], 30.8 µM (inactive); in [6], 73.8 µM (inactive). Besides, the GI50 was > 100 µM (inactive) in [7]; 39.4 µM (inactive) in test [8]; 51.2 µM (inactive) in [9]; 42.3 µM (inactive) in [10]; > 100 µM (inactive) in [11]; > 100 µM (inactive) in test [12]. The GI50 in [13] was 20.1 µM (inactive); in test [16] it was > 100 µM (inactive); in test [17] it was 80.9 µM (inactive); in test [14], 46.5 µM.
Consider `CCOC(=O)N1CCC(=O)C[C@@H]1C/C=C/P1(=O)O[C@H](c2ccccc2)C(C)N1C(C)C` (stereo not given in full), for which the GI50 in test [15], in [1], in test [2], in test [3], in test [4] and in test [5] was > 100 µM (inactive) throughout. For the same compound, the GI50 in test [6], in test [7], in test [8], in [10], in test [11] and in [12] was > 100 µM (inactive) each time. Besides, the GI50 in [13] was > 100 µM (inactive); in test [16], > 100 µM (inactive); in test [14], over 100 µM.
For `c1csc(C[N+]23CN4CN(CN(C4)C2)C3)c1`, the GI50 in [1] was > 100 µM (inactive); in test [2], 22.6 µM (inactive); in [3], 22.7 µM (inactive); in test [4], > 100 µM (inactive); in test [5], 15.3 µM (inactive); in test [6] it was 19.3 µM (inactive). The GI50 in [7] is > 100 µM (inactive); in [8], > 100 µM (inactive); in test [9] it was 23.2 µM (inactive); in test [10] it was > 100 µM (inactive); in test [11], 18.3 µM (inactive); in [12] it was 22.6 µM (inactive). Also, the GI50 was 21.6 µM (inactive) in test [13] and 28.2 µM in [14].
On to `COc1ccc([C@@H]2CC(=O)N2)cc1`, for which the GI50 in test [15], in test [2], in test [3], in test [4], in test [5] and in [6] was > 100 µM (inactive) in each case. For the same compound, the GI50 in test [7], in [8], in test [9], in test [10], in [11] and in [12] was > 100 µM (inactive) each time. The GI50 in test [13] was > 100 µM (inactive); in test [16], > 100 µM (inactive); in test [14], over 100 µM.
In the case of `Cc1ccc(N2C[N+](c3ccccc3)=NC(c3ccccc3)=N2)cc1`, the GI50 in [15] is 80.2 µM (inactive); in test [1], 29.4 µM (inactive); in [4] it was 35.9 µM (inactive); in test [5] it was 36.4 µM (inactive); in test [6], 23.9 µM (inactive); in [7], > 100 µM (inactive). For the same compound, the GI50 in test [8] is 60.8 µM (inactive); in test [9], 54.1 µM (inactive); in [10] it was 67.6 µM (inactive); in test [11] it was 43.6 µM (inactive); in [12], 68.9 µM (inactive); in [13], 21.3 µM (inactive). For the same compound, the results for the GI50 in [16], in test [17] and in [14] were 32.4 µM (inactive), 32.4 µM (inactive) and 48.1 µM, respectively.
For the compound `NC(=O)n1ncc(Cl)c(Cl)c1=O`, the GI50 in [1], in test [2], in [3], in [4], in test [6] and in [7] was > 100 µM (inactive) throughout. Moreover, the GI50 in [8], in test [9], in [10], in test [11], in [12] and in test [16] was > 100 µM (inactive) each time. For the same compound, in test [14], the GI50 is over 100 µM.
Turning to `O=C1C[C@@H]2CCCC[C@@H]2C12SCCS2`, the GI50 is 54.2 µM (inactive) in test [15]; > 100 µM (inactive) in test [1]; 77.3 µM (inactive) in [2]; 32.1 µM (inactive) in test [4]; 92.5 µM (inactive) in test [6]; > 100 µM (inactive) in test [7]. The GI50 in test [9] was > 100 µM (inactive); in test [10] it was > 100 µM (inactive); in test [11], > 100 µM (inactive); in test [12], > 100 µM (inactive); in test [13], 69.8 µM (inactive); in [16] it was > 100 µM (inactive). For the same compound, the GI50 in test [17] was > 100 µM (inactive); in test [14] it was over 100 µM.
Take `S=c1[nH]c2ccc(Br)cc2c(=S)n1-c1ccccc1`: the GI50 is 20.7 µM (inactive) in [1]; 10.5 µM (inactive) in test [2]; 20 µM (inactive) in test [3]; 16.4 µM (inactive) in test [4]; 16.4 µM (inactive) in test [6]; 11 µM (inactive) in test [7]. In addition, the GI50 in test [8] is 24.5 µM (inactive); in test [9], 12.6 µM (inactive); in test [10], 16.9 µM (inactive); in test [11] it was 17.5 µM (inactive); in [12], 24.5 µM (inactive); in test [16], 37.2 µM (inactive). Moreover, the values for the GI50 in test [17] and in test [14] were 19.2 µM (inactive) and 16.1 µM, respectively.
Turning to `COC1C2C[C@@H](O)CCC2C(C(=O)OCCl)C[C@H]1O` (stereo not given in full), the GI50 in [15], in [1], in test [2], in test [4], in test [5] and in test [6] was > 100 µM (inactive) in each case. Besides, the GI50 in test [7], in test [8], in test [9], in test [10], in test [11] and in test [12] was > 100 µM (inactive) in each case. Further, the results for the GI50 in [13] and in test [14] were > 100 µM (inactive) and over 100 µM, respectively.
As for `COc1cccc2c1C(=O)C1(O)CCCCC21` (stereo not given), the GI50 in test [15], in test [1], in test [2], in test [4], in test [6] and in test [7] was > 100 µM (inactive) in each case. For the same compound, the GI50 in [8], in test [9], in test [10], in test [11], in test [12] and in test [13] was > 100 µM (inactive) in each case. Besides, the GI50 in [17] was > 100 µM (inactive); in test [14], over 100 µM.
On to `CC(C)=CCC/C(=C/CC/C(C)=C/CCc1ccoc1)C(=O)O`, for which the GI50 in test [15], in test [1], in test [2], in test [3], in test [4] and in [6] was > 100 µM (inactive) each time. The GI50 is > 100 µM (inactive) in test [7]; 73.5 µM (inactive) in test [8]; > 100 µM (inactive) in test [9]; > 100 µM (inactive) in [10]; > 100 µM (inactive) in test [11]; > 100 µM (inactive) in test [12]. In addition, the GI50 in test [13] is > 100 µM (inactive); in test [16], > 100 µM (inactive); in test [17], > 100 µM (inactive); in [14], over 100 µM.
`COCC12CC(CC1=O)C1C2ON2c3ccccc3C(=O)C12c1ccccc1` (stereo not given): the GI50 in test [15] was 33.3 µM (inactive); in test [2] it was 77.4 µM (inactive); in test [3], > 100 µM (inactive); in test [4], > 100 µM (inactive); in test [5], 88.1 µM (inactive); in test [6], > 100 µM (inactive). In addition, the GI50 was > 100 µM (inactive) in [7]; > 100 µM (inactive) in [8]; > 100 µM (inactive) in test [11]; > 100 µM (inactive) in test [12]; 52.5 µM (inactive) in test [13]; > 100 µM (inactive) in test [16]. Besides, the 50% growth inhibitory concentration (GI50) in [14] is over 100 µM.
As to `CSc1ccc(NC(=O)C2c3[nH]c4ccccc4c3C3CCC(C(C)(C)C)CC3C2C(=O)O)cc1` (stereo not given), the GI50 in test [15] is 20 µM (inactive); in test [2], 17.4 µM (inactive); in [3] it was 23.2 µM (inactive); in test [4], 17.5 µM (inactive); in [5], 11.5 µM (inactive); in test [6], 21.1 µM (inactive). The GI50 in test [7] was 18.9 µM (inactive); in [8], 15.3 µM (inactive); in [11], 20.9 µM (inactive); in test [12], 17.5 µM (inactive); in test [13] it was 15.1 µM (inactive); in test [16], 24.3 µM (inactive). Also, growth in [14] was halved (GI50) at 29.2 µM.

As usually defined, the GI50 is the concentration giving 50% growth inhibition.
